Tests used:
[1] = test system: NCI-H358 cells (KRAS G12C); test: Cell viability assay, G12C; format: cell-based, human; conditions: Homo sapiens; NCI-H358, 72 hrs, Cell Counting Kit-8
Description: (§1) The purpose of this cellular assay was to determine the effects of test compounds on the proliferation of human cancer cell lines NCI-H358 (ATCC-CRL5807) cells, AGS (ATCC-CRL-1739) cells, SW620 (ATCC-CCL-227) over a 3-day treatment period by quantifying the amount of NADPH present at endpoint using Cell Counting Kit-8.
(§2) Cells were seeded at 5,000 cells/well (NCI-H358), 2,000 cells/well (AGS) 2,000 cells/well (SW620) in 96-well assay plates (Corning-3699) and incubated overnight. On the day of the assay, diluted compounds were then added in a final concentration of 0.5% DMSO. After 72 hrs incubation, a tenth of the volume of cell counting kit 8 (Dnjindo-CK04) was added into each well. Read the signal (OD450 minus OD650) using EnVision after 2 hrs incubation. IC50 was determined by fitting a 4-parameter sigmoidal concentration response model.

AGS cells (KRAS G12D) = test: Cell viability assay, G12D; format: cell-based, human; conditions: Homo sapiens, 72 hrs, Cell Counting Kit-8
Description: as §1, §2

SW620 cells (KRAS G12V) = test: Cell viability assay, G12V; format: cell-based, human; conditions: Homo sapiens, SW-620; SW620, 72 hrs, Cell Counting Kit-8
Description: as §1, §2

KRAS G12C-BRAF complex [2] = molecular target: T1, KRAS G12C-BRAF complex (Homo sapiens, UniProt P01116+P62937, G12C); test: KRAS G12C-BRAF NanoBit assay in HEK293 cells; format: cell-based; conditions: HEK293 stable cell pool, 3 hours of incubation
T1 construct: expressed in transfected cells
Description: This assay is to measure the ability of tested compounds in disruption of the KRAS G12C-BRAF complex at the cellular level, we established the NanoBit cellular assay in mammalian HEK293 (ATCC) cells. HEK293 cells were grown and maintained using DMEM medium (Thermo Fisher Scientific) with 10% fetal bovine serum and 1% penicillin/streptomycin. Both KRAS G12C and BRAF RBD were cloned into the NanoBit vectors ([…] vectors system, Promega) with the orientations SmBit-KRAS G12C and BRAF RBD-LgBit, respectively, and co-transfected into HEK293 cells. Cells were then selected with 100 μg/mL Hygromycin B (10687010, Thermo Fisher) and Blasticidin (5 μg/mL) for 4 weeks to get the stable cell pool. On the day of the assay, 75 nL of compound solution was presented in a 384-well assay plate as a 16-point 3-fold dilution starting from a final concentration of 30 μM in DMSO. Then cells were seeded at 10,000 cells/25 μL/well in a 384-well plate. After 3 hours of incubation, 6 μL of volume of Nano-Glo® Live Cell Substrate (Promega) was added into each well. Monitor luminescence using ultra384 model in Envision at 20 minutes. Compounds that facilitate disruption of the KRAS G12C-BRAF RBD complex were identified as those eliciting a decrease of luminescence relative to DMSO control wells.

KRAS G12C-BRAF complex [3] = molecular target: T1, KRAS G12C-BRAF complex; test: KRAS-BRAF with CYPA (500 nM) interaction assay (TR-FRET), G12C; format: biochemical; conditions: 3 hours
Description: (§3) Kras-BRAF with CYPA (500 nM) Interaction Assay In this example, TR-FRET was also used to measure the compound or compound-CYPA dependent disruption of the KRAS G12C-BRAF complex. This protocol was also used to measure disruption of KRAS G12D or KRAS G12V binding to BRAF by a compound of the invention, respectively. […] TR-FRET signal was read on a […] microplate reader (Ex320 nm, Em 665/615 nm). Compounds that facilitate disruption of the KRAS-BRAF complex were identified as those eliciting a decrease in the TR-FRET ratio relative to DMSO control wells.

[4] = molecular target: KRAS G12D binding to BRAF (Homo sapiens, UniProt P01116+P62937, G12D); test: KRAS-BRAF with CYPA (500 nM) interaction assay (TR-FRET), G12D; format: biochemical; conditions: 3 hours
Description: as §3

[5] = molecular target: KRAS G12V binding to BRAF (Homo sapiens, UniProt P01116+P62937, G12V); test: KRAS-BRAF with CYPA (500 nM) interaction assay (TR-FRET), G12V; format: biochemical; conditions: 3 hours
Description: as §3

[6] = test system: phosphorylation of ERK, KRAS G12C in NCI-H358 cells; test: pERK inhibition assay, G12C; format: cell-based, human; conditions: Homo sapiens; NCI-H358, 4 hours of incubation
Description: (§4) This assay is to measure the ability of test compounds in inhibiting the phosphorylation of ERK, the downstream signaling of KRAS G12C in NCI-H358 cells, KRAS G12D in AGS cells, and KRAS G12V in SW620. NCI-H358 (ATCC-CRL5807) cells, AGS (ATCC-CRL-1739) cells, SW620 (ATCC-CCL-227) cells were all grown and maintained using RPMI-1640 medium (Thermo Fisher Scientific) with 10% fetal bovine serum and 1% penicillin/streptomycin. On the day prior to compound addition, cells were plated in tissue culture-treated 96 well plates (Corning-3699) at a density of 30,000 cell/well, 20,000 cell/well, 30,000 cell/well for NCI-H358, AGS and SW620 respectively, and allowed for attachment overnight. Diluted compounds were then added in a final concentration of 0.5% DMSO. After 4 hours of incubation, the medium was removed, 100 μL of 4% formaldehyde was added, and the assay plates were incubated at room temperature for 20 minutes. The plates were then washed once with phosphate buffered saline (PBS), and permeabilized with 100 μL of chilled methanol for 10 minutes. Non-specific antibody binding to the plates was blocked using 50 μL 1×BSA blocking buffer (Thermo-37520, 10-fold dilution by Phosphate-Buffered Saline Tween (PBST) for at least 1 hour at room temperature.
(§5) The amount of phosphor-ERK was determined using an antibody specific for phosphorylated form of ERK. Primary antibody (pERK, CST-4370, Cell Signaling Technology) was diluted 1:300 in blocking buffer, with 50 μL aliquoted to each well, and incubated overnight at 4° C. Cells was washed five times for 5 minutes with PBST. Secondary antibody (HRP-linked anti-rabbit IgG, CST-7074, Cell Signaling Technology) was diluted 1:1000 in blocking buffer, and 50 μL was added to each well and incubated 1-2 hrs at room temperature. Cells was washed 5 times for 5 minutes with PBST, 100 μL TMB ELISA substrate (abcam-ab171523) were added and gently shake for 20 minutes. 50 μL stop solution (abcam-ab171529) were added, and then read the signal (OD450) by EnVision.
(§6) IC50 was determined by fitting a 4-parameter sigmoidal concentration response model.

[7] = test system: phosphorylation of ERK, KRAS G12D in AGS cells; test: pERK inhibition assay, G12D; format: cell-based, human; conditions: Homo sapiens, 4 hours of incubation
Description: as §4, §5, §6

[8] = test system: phosphorylation of ERK, KRAS G12V in SW620; test: pERK inhibition assay, G12V; format: cell-based, human; conditions: Homo sapiens, SW-620; SW620, 4 hours of incubation
Description: as §4, §5, §6

Sequence of KRAS G12D binding to BRAF (P01116 1-188 isoform P01116-2 G12D): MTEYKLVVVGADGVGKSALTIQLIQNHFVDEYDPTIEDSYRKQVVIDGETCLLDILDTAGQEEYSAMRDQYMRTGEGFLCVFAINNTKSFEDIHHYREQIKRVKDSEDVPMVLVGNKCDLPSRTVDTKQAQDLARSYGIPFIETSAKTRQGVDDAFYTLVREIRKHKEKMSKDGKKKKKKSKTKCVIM
Sequence of KRAS G12D binding to BRAF (P62937 whole entry): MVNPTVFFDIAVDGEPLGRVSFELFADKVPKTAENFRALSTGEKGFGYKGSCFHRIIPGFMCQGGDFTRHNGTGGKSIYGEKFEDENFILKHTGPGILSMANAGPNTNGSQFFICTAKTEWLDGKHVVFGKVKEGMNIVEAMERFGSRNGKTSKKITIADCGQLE
Sequence of KRAS G12V binding to BRAF (P01116 1-188 isoform P01116-2 G12V): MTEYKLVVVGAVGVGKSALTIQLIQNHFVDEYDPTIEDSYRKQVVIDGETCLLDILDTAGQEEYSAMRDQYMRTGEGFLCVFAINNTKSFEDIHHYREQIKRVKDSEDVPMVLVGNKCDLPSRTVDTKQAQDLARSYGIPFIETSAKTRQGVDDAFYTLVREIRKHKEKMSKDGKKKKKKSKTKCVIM
Sequence of KRAS G12V binding to BRAF (P62937 whole entry): as the sequence (P62937 whole entry) above
T1 sequence (P01116 1-188 isoform P01116-2 G12C): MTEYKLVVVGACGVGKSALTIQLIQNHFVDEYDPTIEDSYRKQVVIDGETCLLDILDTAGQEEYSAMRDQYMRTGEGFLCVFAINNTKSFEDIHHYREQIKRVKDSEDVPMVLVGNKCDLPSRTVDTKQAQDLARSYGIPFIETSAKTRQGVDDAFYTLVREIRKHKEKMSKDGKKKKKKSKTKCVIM
T1 sequence (P62937 whole entry): as the sequence (P62937 whole entry) above

Row | IC50 [1] | IC50 (AGS cells (KRAS G12D)) | IC50 (SW620 cells (KRAS G12V)) | IC50 (KRAS G12C-BRAF complex [2]) | IC50 (KRAS G12C-BRAF complex [3]) | IC50 [4] | IC50 [5] | IC50 [6] | IC50 [7] | IC50 [8] | Compound
1 | 0.027 µM | > 10 µM | 0.04 µM | 0.081 µM | 3.35 µM | > 10 µM | > 10 µM | 0.035 µM | 1.1 µM | 0.063 µM | CO[C@@H](C)c1ncc(N2CCN(C)CC2)cc1-c1c2c3cc(c(F)cc3n1CC(F)(F)F)-c1csc(n1)C[C@H](NC(=O)[C@H](C(C)C)N(C)C(=O)[C@H]1C[C@H](C#CC(F)(F)F)C1)C(=O)N1CCC[C@H](N1)C(=O)OCC(C)(C)C2 (atropisomer, axis not shown; (M)) [Example 1, trans-N-[(1S)-1-[[(7S,13S)-24-fluoro-(20M)-20-[2-[(1S)-1-methoxyethyl]-5-(4-methylpiperazin-1-yl)-3-pyridyl]-17,17-dimethyl-8,14-dioxo-21-(2,2,2-trifluoroethyl)-15-oxa-4-thia-9,21,27,28-tetrazapentacyclo[17.5.2.1^2,5.1^9,13.0^22,26]octacosa-1(25),2,5(28),19,22(26),23-hexaen-7-yl]carbamoyl]-2-methyl-propyl]-N-methyl-3-(3,3,3-trifluoroprop-1-ynyl)cyclobutanecarboxamide]
2 | < 0.001 µM | 2.84 µM | 4.73 µM | 0.029 µM | 0.021 µM | > 10 µM | > 10 µM | 0.002 µM |  | 0.008 µM | CCn1c(-c2cc(N3CCN(C)CC3)cnc2[C@H](C)OC)c2c3cc(c(F)cc31)-c1csc(n1)C[C@H](NC(=O)[C@H](C(C)C)N(C)C(=O)[C@H]1C[C@@H](C#CC(F)(F)F)C1)C(=O)N1CCC[C@H](N1)C(=O)OCC(C)(C)C2 (atropisomer, axis not shown; (M)) [Example 6, cis-N-[(1S)-1-[[(7S,13S)-21-ethyl-24-fluoro-(20M)-20-[2-[(1S)-1-methoxyethyl]-5-(4-methylpiperazin-1-yl)-3-pyridyl]-17,17-dimethyl-8,14-dioxo-15-oxa-4-thia-9,21,27,28-tetrazapentacyclo[17.5.2.1^2,5.1^9,13.0^22,26]octacosa-1(25),2,5(28),19,22(26),23-hexaen-7-yl]carbamoyl]-2-methyl-propyl]-N-methyl-3-(3,3,3-trifluoroprop-1-ynyl)cyclobutanecarboxamide]
3 | 0.002 µM | 0.02 µM | 0.01 µM | 0.018 µM | 1.79 µM | > 10 µM | 6.74 µM | 0.013 µM |  | 0.007 µM | CO[C@@H](C)c1ncc(N2CCN(C)CC2)cc1-c1c2c3cc(c(F)cc3n1CC(F)(F)F)-c1csc(n1)C[C@H](NC(=O)[C@H](C(C)C)N(C)C(=O)N1CC(C#CC(F)(F)F)C1)C(=O)N1CCC[C@H](N1)C(=O)OCC(C)(C)C2 (atropisomer, axis not shown; (M)) [Example 2, N-[(1S)-1-[[(7S,13S)-24-fluoro-(20M)-20-[2-[(1S)-1-methoxyethyl]-5-(4-methylpiperazin-1-yl)-3-pyridyl]-17,17-dimethyl-8,14-dioxo-21-(2,2,2-trifluoroethyl)-15-oxa-4-thia-9,21,27,28-tetrazapentacyclo[17.5.2.1^2,5.1^9,13.0^22,26]octacosa-1(25),2,5(28),19,22(26),23-hexaen-7-yl]carbamoyl]-2-methyl-propyl]-N-methyl-3-(3,3,3-trifluoroprop-1-ynyl)azetidine-1-carboxamide]
4 | 0.023 µM | > 5 µM | > 5 µM | 0.335 µM | > 10 µM | > 10 µM | > 10 µM | 1.1 µM |  | 0.099 µM | CO[C@@H](C)c1ncc(N2CCN(CC(F)(F)F)CC2)cc1-c1c2c3cc(c(F)cc3n1CC(F)(F)F)-c1csc(n1)C[C@H](NC(=O)[C@H](C(C)C)N(C)C(=O)[C@H]1C[C@@H](C#CC(F)(F)F)C1)C(=O)N1CCC[C@H](N1)C(=O)OCC(C)(C)C2 (atropisomer, axis not shown; (M)) [Example 7, cis-N-[(1S)-1-[[(7S,13S)-24-fluoro-(20M)-20-[2-[(1S)-1-methoxyethyl]-5-[4-(2,2,2-trifluoroethyl)piperazin-1-yl]-3-pyridyl]-17,17-dimethyl-8,14-dioxo-21-(2,2,2-trifluoroethyl)-15-oxa-4-thia-9,21,27,28-tetrazapentacyclo[17.5.2.1^2,5.1^9,13.0^22,26]octacosa-1(25),2,5(28),19,22(26),23-hexaen-7-yl]carbamoyl]-2-methyl-propyl]-N-methyl-3-(3,3,3-trifluoroprop-1-ynyl)cyclobutanecarboxamide]
